The test system of assay [1] is NF-kB. The assay is described as follows: NF-kB luciferase reporter assay (HepG2 NF-kB-Luc reporter cells, IL-1β stimulated). The class given is cell-based, human. Particulars: for IC50: Homo sapiens; for % IC50 relative to Celastrol: relative to celastrol (compound 1). How it is done:
HepG2 NF-kB-Luc reporter cells stimulated with IL-1β (20 ng/ml) and the relative NF-kB luciferase activity (RLU) was determined for each of celastrol (compound 1) and each of the exemplary derivative compounds at the following eight point concentrations: 10 μM, 5 μM, 2.5 μM, 1.25 μM, 0.63 μM, 0.31 μM, 0.16 μM, 0.016 μM, and 0 μM). Assay values were plotted (not shown) and IC50 inhibitory concentrations were calculated after normalization using Prizm 9.0 software.
This example illustrates a study of the anti-inflammatory potential of an exemplary celastrol derivative of the present disclosure (compound 22) using an NF-κB luciferase promoter reporter gene assay in the human liver cancer cell line, HepG2.
NF-kB luciferase reporter assay: The celastrol derivative, compound 22 (prepared as described in Example 13) and the parent molecule, compound 1 (celastrol), were freshly dissolved in DMSO. HepG2 NF-κB reporter cells were seeded (2.5×10^4/well) in 96-well plate and then pre-treated with either compound 22 or compound 1 at the 8-point concentrations of 10, 5, 2.5, 1.25, 0.63, 0.31, 0.16, 0.016, or 0 μM, respectively, and the NF-κB promoter was activated by adding IL-1β (20 ng/ml) to the cells. After 18 hours, the cells were harvested by adding the 1× passive cell lysis buffer (Promega) and followed by measurement of the relative NF-kB luciferase activity (RLU) using GloMax discover microplate reader (Promega). Inhibitory concentrations (IC50) after normalization using Prizm 9.0 software.

Assay [2] relates to TNF-α secretion. Kind of assay: Secreted TNF-α in conditioned media of BMDC (ELISA), LPS+ATP or LPS+Nigericin. As to conditions: 63-500 nM, FIG. 2C. The class given is cell-based. As for the experimental part: FIG. 2A depicts western blot images showing the relative NLRP3 inflammasome activity of the compounds 22 (CLM-022) and 1 (CLM-001) by detecting the level of cellular ASC complex and the mature form of IL-1β (15 kDa) in a conditioned media of BMDCs treated with LPS (100 ng/ml) for 3 hours and then the compound at 50 nM, 100 nM, and 500 nM concentration for 30 min, followed by ATP or Nigericin. ASC monomer and β-Actin proteins were used as controls. FIG. 2B depict plots of results showing secreted IL-1β levels measured by ELISA using conditioned media of BMDC treated with the compound 22 or compound 1 at 63 nM, 125 nM, 250 nM, and 500 nM, under NLRP3 inflammasome activation induced either by LPS+ATP or LPS+Nigericin. FIG. 2C depict plots of results showing secreted TNF-α levels measured by ELISA using conditioned media of BMDC treated with the compound 22 or compound 1 at 63 nM, 125 nM, 250 nM, and 500 nM, under NLRP3 inflammasome activation induced either by LPS+ATP or LPS+Nigericin.
3. The secreted form of TNF-α, a NLRP3 inflammasome independent cytokine, induced by LPS+ATP or LPS+Nigericin were measured by ELISA assay using the conditioned media of BMDC treated with compound 1 (CLM-1) or compound 22 (CLM-022) at concentrations of 63, 125, 250, 500 nM under NLRP3 inflammasome activation induced either by LPS+ATP or LPS+Nigericin.

Assay [3] concerns LPS-induced acute inflammation. Kind of assay: LPS-induced septic shock mouse model, cytokine expression in serum (ELISA) and colonic mucosa (qPCR). The class given is in vivo. As to conditions: 1 mg/kg i.p. 1 hour before LPS (25 mg/kg, i.p.), 4 hours post LPS, ELISA; FIG. 4A. How it is done: FIG. 4A, and FIG. 4B depict results showing that compound 22 (CLM-022) decreased the production of pro-inflammatory cytokines in the LPS-induced septic shock mouse model as described in Example 17. Compound 1 (CLM-001) and compound 22 (CLM-022) (1 mg/kg) injected intraperitoneally 1 hour prior to septic shock induction by administering sublethal dose of LPS (25 mg/kg, i.p.), mice were sacrificed 4 hours post LPS injection, and subjected to measurement of inflammatory cytokine expression. FIG. 4A depicts plot of data showing that the level of TNF-α decreased in the serum of compound 1 and compound 22 treated mice.
This example illustrates a study of the inhibitory function of an exemplary celastrol derivative of the present disclosure (compound 22) against LPS-induced acute inflammation in vivo, we set up LPS-induced septic shock mouse model (Yu et al., 2017) and detected the expression levels of inflammatory cytokines in colon.
Mice (n=3 per group) were administered intraperitoneally (i.p.) with control vehicle, compound 1 (1 mg/kg), or compound 22 (1 mg/kg). After 1 hour, mice were administered by i.p. injection a sublethal dose of LPS (25 mg/kg). Four hours later, the mice were subjected to blood collection and harvesting colonic mucosa by scraping colon. Cytokine expression was measured by conducting ELISA (Cat #900-T54, PeproTech) for TNF-α on blood serum samples and qPCR for the cytokines, IL-1 (TaqMan, Mm00434228), IL-6 (TaqMan, Mm00446190), TNF-α (TaqMan, 00443258), iNOS (TaqMan, 00440502), on colonic mucosa samples.

The subject of assay [4] is NLRP3 inflammasome. The assay is described as follows: IL-1β secretion in BMDMs, LPS + Nigericin. As to conditions: Mus musculus, BMDM, LPS (100 ng/ml) + Nigericin (10 μM), 0-10 μM, FIG. 5A, read-out: IC50 for inhibition of IL-1β secretion (normalized). The format is cell-based, mouse. As for the experimental part:
(§1) This example illustrates a comparative study of CLM-022 and MCC950 in inhibiting NLRP3 inflammasome activity in mouse and human macrophages.
(§2) Bone marrow-derived macrophages (BMDMs) were treated with LPS (100 ng/ml) for 3 hours to induce the expression of inflammatory genes, including TNF-α, NLRP3, and pro-IL-1β. Subsequently, the BMDMs were treated with CLM-022 or MCC950 in a dose range of 0-10 μM for 30 minutes. Then, to fully activate NLRP3-dependent inflammasome activity and cytokine secretion, Nigericin (10 μM) was added to the BMDMs for an additional 30 minutes.

The subject of assay [5] is TNF-α secretion. The assay is described as follows: TNF-α secretion in BMDMs, LPS + Nigericin. The format is cell-based, mouse. Particulars: FIG. 5B. As for the experimental part:
as §1, §2

The test system of assay [6] is NLRP3 inflammasome. The assay is described as follows: IL-1β secretion in THP-1 macrophages, LPS + Nigericin. As to conditions: human THP-1 macrophages, LPS (100 ng/ml) + Nigericin (10 μM), 0-10 μM; FIG. 5C; read-out: IC50 for inhibition of IL-1β secretion. The class given is cell-based. How it is done: as §1
To confirm the inhibitory effect of CLM-022 in human macrophages, THP-1 cells, a human leukemia monocytic cell line, were differentiated into macrophages using phorbol 12-myristate-13-acetate (PMA, 100 ng/ml) treatment for one day. The THP-1 macrophages were then treated with LPS (100 ng/ml) for 3 hours to induce the expression of inflammatory genes. Subsequently, the THP-1 cells were treated with CLM-022 or MCC950 in a dose range of 0-10 μM for 30 minutes. Then, to fully activate NLRP3-dependent inflammasome activity, Nigericin (10 μM) was added to the THP-1 cells for an additional 60 min.

The subject of assay [7] is THP-1 cells. The assay is described as follows: THP-1 cell viability (inflammasome-induced pyroptosis), live/dead staining and flow cytometry. The class given is cell-based, human. As to conditions: THP-1, LPS and Nigericin; FIG. 7A. An excerpt: (§3) Pyroptosis, a pro-inflammatory form of cell death, is triggered by the activation of NLRP3 inflammasome components (GSDMD and Caspase-1), leading to the release of pro-inflammatory cytokines IL-1β and IL-18, as well as damage-associated molecular patterns (DAMPs). This process elicits a cascade of inflammatory responses, which can persist if dysregulated in affected tissues. Given the significant inhibitory potential of CLM-022 against NLRP3 inflammasome and IL-1β secretion, it was proposed that CLM-022 could effectively enhance cell viability by inhibiting pyroptosis in the context of inflammation and inflammasome activation. This example illustrates a comparative study of the abilities of CLM-022 and MCC950 to protect THP-1 cells from inflammasome-induced pyroptosis.
(§4) After LPS and Nigericin treatment, THP-1 cells were treated with either CLM-022 or MCC950 over a dosage range of 0 μM to 10 μM and cell viability was determined by impermeant live/dead staining dye and flow cytometric analysis. Additionally, NLRP3 inflammasome-induced cytotoxicity was investigated by measuring the level of LDH in the conditioned media after the CLM-022 and MCC950 treatments. Further, Western blotting of samples from the THP-1 cell viability assays was carried out to determine levels of the pyroptosis-mediating molecules, GSDMD and Caspase-1.
(A flow cytometer gives signals particle by particle.)

Assay [8] deals with THP-1 cells. The assay is described as follows: LDH release (NLRP3 inflammasome-induced cytotoxicity) in THP-1 cells. The format is cell-based, human. Particulars: THP-1, LPS and Nigericin, FIG. 7B.
Source text: as §3, §4
Background: Release of lactate dehydrogenase indicates damage to the cell membrane.

Assay [9] concerns GSDMD and Caspase-1. Kind of assay: GSDMD and Caspase-1 cleavage in THP-1 cells (western blot). Particulars: Homo sapiens; THP-1, western blot; FIG. 7C; read-out: concentration inhibiting GSDMD and Caspase-1 cleavage. The format is cell-based.
Source text: as §3, §4
Background: A western blot detects proteins with antibodies after separation by electrophoresis.

The mark [10] stands for this setting: HepG2 NF-kB-Luc reporter cells, IL-1β (20 ng/ml), Example 13, read-out: NF-kB IC50.

The structures appear in SMILES notation. Where two headings read alike, the source gives them in different places.

In the case of `CC1=C(O)C(=O)C=C2C1=CC=C1[C@@]2(C)CC[C@@]2(C)[C@@H]3C[C@](C)(C(=O)O)CC[C@]3(C)CC[C@]12C` [Compound 1, (2R,4aS,6aR,6aS,14aS,14bR)-10-hydroxy-2,4a,6a,6a,9,14a-hexamethyl-11-oxo-1,3,4,5,6,13,14,14b-octahydropicene-2-carboxylic acid, reference compound], the IC50 (as a rule, the midpoint of a concentration-inhibition curve) in assay [1] (HepG2, IL-1β (20 ng/ml), 18 hours, normalized, Example 14, FIG. 1B, read-out: IC50 for NF-κB promoter activity) was found to be 528 nM; in assay [1] (setting [10]) it was 667 nM. Moreover, the “suppression of TNF-α secretion” value in [2] is recorded as “no significant suppressive effect on TNF-α inflammatory cytokine secretion”. Besides, in [3], the “level of TNF-α in serum” value is given as “decreased”.
As to `CC1=C(O)C(=O)C=C2C1=CC=C1[C@@]2(C)CC[C@@]2(C)C3C[C@](C)(NC(=O)C(=O)N4CCN(C)CC4)CC[C@]3(C)CC[C@]12C` (stereo partly drawn) [Compound 14, N-((2R,4aS,6aS,12bR,14aS)-10-hydroxy-2,4a,6a,9,12b,14a-hexamethyl-11-oxo-1,2,3,4,4a,5,6,6a,11,12b,13,14,14a,14b-tetradecahydropicen-2-yl)-2-(4-methylpiperazin-1-yl)-2-oxoacetamide], the IC50 in [1] (setting [10]) is 1160 nM. Besides, in [1], the “% IC50 relative to Celastrol” value is 115%.
For the molecule `CC1=C(O)C(=O)C=C2C1=CC=C1[C@@]2(C)CC[C@@]2(C)C3C[C@](C)(NC(=O)C(=O)N4CC5(COC5)C4)CC[C@]3(C)CC[C@]12C` (stereo partly drawn) [Compound 15, N-((2R,4aS,6aS,12bR,14aS)-10-hydroxy-2,4a,6a,9,12b,14a-hexamethyl-11-oxo-1,2,3,4,4a,5,6,6a,11,12b,13,14,14a,14b-tetradecahydropicen-2-yl)-2-oxo-2-(2-oxa-6-azaspiro[3.3]heptan-6-yl)acetamide], in assay [1] (setting [10]), the IC50 is 942 nM. For the same molecule, in assay [1], the “% IC50 relative to Celastrol” value is 93%.
On the same counts, the results for `CC1=C(O)C(=O)C=C2C1=CC=C1[C@@]2(C)CC[C@@]2(C)C3C[C@](C)(N(C)C(=O)C(=O)N4CCN(C)CC4)CC[C@]3(C)CC[C@]12C` (stereo partly drawn) [Compound 16, N-((2R,4aS,6aS,12bR,14aS)-10-hydroxy-2,4a,6a,9,12b,14a-hexamethyl-11-oxo-1,2,3,4,4a,5,6,6a,11,12b,13,14,14a,14b-tetradecahydropicen-2-yl)-N-methyl-2-(4-methylpiperazin-1-yl)-2-oxoacetamide] are 1150 nM and 114%.
On the same counts, the results for `CC1=C(O)C(=O)C=C2C1=CC=C1[C@@]2(C)CC[C@@]2(C)C3C[C@](C)(NC(=O)C(=O)NC4CN(C)C4)CC[C@]3(C)CC[C@]12C` (stereo partly drawn) [Compound 17, N1-((2R,4aS,6aS,12bR,14aS)-10-hydroxy-2,4a,6a,9,12b,14a-hexamethyl-11-oxo-1,2,3,4,4a,5,6,6a,11,12b,13,14,14a,14b-tetradecahydropicen-2-yl)-N2-(1-methylazetidin-3-yl)oxalamide] are 1640 nM and 163%.
With `CC(C)(O)c1coc(S(=O)(=O)NC(=O)Nc2c3c(cc4c2CCC4)CCC3)c1` [MCC950, reference compound], the half-maximal inhibitory concentration (IC50) was determined as 70 nM in assay [4]; 1250 nM in assay [6]; 124 nM in assay [8] (Homo sapiens, 0 μM to 10 μM, read-out: IC50 for LDH release (normalized)). Moreover, in assay [5], the “suppression of TNF-α secretion” value was “neither CLM-022 nor MCC950 suppressed TNF-α secretion”. In addition, in [7], the “cell viability (in words)” value is recorded as “A similar effect”. In assay [8], the “inhibition of LDH release” value is listed as “significantly inhibited release of LDH”. For the same molecule, the minimal effective concentration in [9] was determined as 1 µM.

Values taken from patent US20260356879A1, “CELASTROL DERIVATIVES” (Celloram Inc., priority 2022, published 2026).
